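Cells were grown in 96-well plates and exposed to each compound for 48 hours at five concentrations; endpoints were interpolated linearly between bracketing concentrations, or set to the highest concentration if not reached. TGI denotes the concentration required for complete inhibition of growth.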
What was measured:
Assay in all cases: inhibition of tumour cell growth, NCI panel, 48 h
786-0 renal = system: 786-0 renal
A549 NSCLC = system: A549 NSCLC
CAKI-1 renal = system: CAKI-1 renal
CCRF-CEM leukemia = system: CCRF-CEM leukemia
COLO 205 colon = system: COLO 205 colon
DLD-1 colon = system: DLD-1 colon
DMS 114 small cell lung = system: DMS 114 small cell lung
DMS 273 small cell lung = system: DMS 273 small cell lung
EKVX NSCLC = system: EKVX NSCLC
HCC-2998 colon = system: HCC-2998 colon
HCT-116 colon = system: HCT-116 colon
HCT-15 colon = system: HCT-15 colon
HL-60(TB) leukemia = system: HL-60(TB) leukemia
HOP-18 NSCLC = system: HOP-18 NSCLC
HOP-62 NSCLC = system: HOP-62 NSCLC
HT29 colon = system: HT29 colon
IGROV1 ovarian = system: IGROV1 ovarian
K-562 leukemia = system: K-562 leukemia
KM12 colon = system: KM12 colon
KM20L2 colon = system: KM20L2 colon
LOX IMVI melanoma = system: LOX IMVI melanoma
LXFL 529 NSCLC = system: LXFL 529 NSCLC
M14 melanoma = system: M14 melanoma
M19-MEL melanoma = system: M19-MEL melanoma
MALME-3M melanoma = system: MALME-3M melanoma
MOLT-4 leukemia = system: MOLT-4 leukemia
NCI-H226 lung = system: NCI-H226 lung
NCI-H23 lung = system: NCI-H23 lung
NCI-H460 lung = system: NCI-H460 lung
NCI-H522 lung = system: NCI-H522 lung
OVCAR-3 ovarian = system: OVCAR-3 ovarian
OVCAR-4 ovarian = system: OVCAR-4 ovarian
OVCAR-5 ovarian = system: OVCAR-5 ovarian
OVCAR-8 ovarian = system: OVCAR-8 ovarian
RPMI-8226 leukemia = system: RPMI-8226 leukemia
RXF 393 renal = system: RXF 393 renal
SF-268 CNS = system: SF-268 CNS
SF-295 CNS = system: SF-295 CNS
SF-539 CNS = system: SF-539 CNS
SK-MEL-2 melanoma = system: SK-MEL-2 melanoma
SK-MEL-28 melanoma = system: SK-MEL-28 melanoma
SK-OV-3 ovarian = system: SK-OV-3 ovarian
SN12C renal = system: SN12C renal
SNB-19 CNS = system: SNB-19 CNS
SNB-75 CNS = system: SNB-75 CNS
SNB-78 CNS = system: SNB-78 CNS
SW-620 colon = system: SW-620 colon
TK-10 renal = system: TK-10 renal
U251 CNS = system: U251 CNS
UACC-257 melanoma = system: UACC-257 melanoma
UACC-62 melanoma = system: UACC-62 melanoma
UO-31 renal = system: UO-31 renal
XF 498 CNS = system: XF 498 CNS
A498 renal = system: A498 renal
ACHN renal = system: ACHN renal
HOP-92 NSCLC = system: HOP-92 NSCLC
RXF-631 renal = system: RXF-631 renal
SK-MEL-5 melanoma = system: SK-MEL-5 melanoma

Question: Which results are given for `OCC(O)C(O)C(O)c1nn(-c2ccc(F)cc2)c2nc3cc(Cl)c(Cl)cc3nc12` (configuration not stated)?
Answer: TGI (786-0 renal): 81.9 µM; TGI (A549 NSCLC): 32 µM; TGI (CAKI-1 renal): 55.6 µM; TGI (CCRF-CEM leukemia): 40 µM; TGI (COLO 205 colon): > 100 µM; TGI (DLD-1 colon): > 100 µM; TGI (DMS 114 small cell lung): 71.4 µM; TGI (DMS 273 small cell lung): 48.2 µM; TGI (EKVX NSCLC): 49.2 µM; TGI (HCC-2998 colon): > 100 µM; TGI (HCT-116 colon): > 100 µM; TGI (HCT-15 colon): > 100 µM; TGI (HL-60(TB) leukemia): > 100 µM; TGI (HOP-18 NSCLC): 52.7 µM; TGI (HOP-62 NSCLC): 28.8 µM; TGI (HT29 colon): > 100 µM; TGI (IGROV1 ovarian): 63.6 µM; TGI (K-562 leukemia): 43.2 µM; TGI (KM12 colon): 84.8 µM; TGI (KM20L2 colon): > 100 µM; TGI (LOX IMVI melanoma): 76.5 µM; TGI (LXFL 529 NSCLC): > 100 µM; TGI (M14 melanoma): 91.8 µM; TGI (M19-MEL melanoma): 57.8 µM; TGI (MALME-3M melanoma): 23.5 µM; TGI (MOLT-4 leukemia): 48.4 µM; TGI (NCI-H226 lung): 49.4 µM; TGI (NCI-H23 lung): 48 µM; TGI (NCI-H460 lung): 82.1 µM; TGI (NCI-H522 lung): 31.4 µM; TGI (OVCAR-3 ovarian): 49.5 µM; TGI (OVCAR-4 ovarian): > 100 µM; TGI (OVCAR-5 ovarian): > 100 µM; TGI (OVCAR-8 ovarian): 23 µM; TGI (RPMI-8226 leukemia): > 100 µM; TGI (RXF 393 renal): 36.9 µM; TGI (SF-268 CNS): 43.3 µM; TGI (SF-295 CNS): > 100 µM; TGI (SF-539 CNS): 39.2 µM; TGI (SK-MEL-2 melanoma): 39.2 µM; TGI (SK-MEL-28 melanoma): 41.9 µM; TGI (SK-OV-3 ovarian): 46.4 µM; TGI (SN12C renal): 62.4 µM; TGI (SNB-19 CNS): 38 µM; TGI (SNB-75 CNS): 13.2 µM; TGI (SNB-78 CNS): 27.4 µM; TGI (SW-620 colon): > 100 µM; TGI (TK-10 renal): 59.1 µM; TGI (U251 CNS): > 100 µM; TGI (UACC-257 melanoma): 55.1 µM; TGI (UACC-62 melanoma): 35.9 µM; TGI (UO-31 renal): > 100 µM; TGI (XF 498 CNS): 24.6 µM

Question: Which results are given for `O=C(O)CSc1n[nH]c(-c2ccco2)n1`?
Answer: TGI (786-0 renal): > 100 µM; TGI (A498 renal): > 100 µM; TGI (A549 NSCLC): > 100 µM; TGI (ACHN renal): > 100 µM; TGI (CAKI-1 renal): > 100 µM; TGI (CCRF-CEM leukemia): > 100 µM; TGI (COLO 205 colon): > 100 µM; TGI (DLD-1 colon): > 100 µM; TGI (DMS 273 small cell lung): > 100 µM; TGI (EKVX NSCLC): > 100 µM; TGI (HCC-2998 colon): > 100 µM; TGI (HCT-116 colon): > 100 µM; TGI (HL-60(TB) leukemia): > 100 µM; TGI (HOP-62 NSCLC): > 100 µM; TGI (HOP-92 NSCLC): > 100 µM; TGI (HT29 colon): > 100 µM; TGI (IGROV1 ovarian): > 100 µM; TGI (K-562 leukemia): > 100 µM; TGI (KM12 colon): > 100 µM; TGI (KM20L2 colon): > 100 µM; TGI (LOX IMVI melanoma): > 100 µM; TGI (LXFL 529 NSCLC): > 100 µM; TGI (M14 melanoma): > 100 µM; TGI (M19-MEL melanoma): > 100 µM; TGI (MALME-3M melanoma): > 100 µM; TGI (MOLT-4 leukemia): > 100 µM; TGI (NCI-H226 lung): > 100 µM; TGI (NCI-H23 lung): > 100 µM; TGI (NCI-H460 lung): > 100 µM; TGI (NCI-H522 lung): > 100 µM; TGI (OVCAR-3 ovarian): > 100 µM; TGI (OVCAR-4 ovarian): > 100 µM; TGI (OVCAR-5 ovarian): > 100 µM; TGI (OVCAR-8 ovarian): > 100 µM; TGI (RPMI-8226 leukemia): > 100 µM; TGI (RXF 393 renal): > 100 µM; TGI (RXF-631 renal): > 100 µM; TGI (SF-295 CNS): > 100 µM; TGI (SF-539 CNS): > 100 µM; TGI (SK-MEL-2 melanoma): > 100 µM; TGI (SK-MEL-28 melanoma): > 100 µM; TGI (SK-MEL-5 melanoma): > 100 µM; TGI (SK-OV-3 ovarian): > 100 µM; TGI (SN12C renal): > 100 µM; TGI (SNB-19 CNS): > 100 µM; TGI (SNB-75 CNS): > 100 µM; TGI (SNB-78 CNS): > 100 µM; TGI (SW-620 colon): > 100 µM; TGI (TK-10 renal): > 100 µM; TGI (U251 CNS): > 100 µM; TGI (UACC-257 melanoma): > 100 µM; TGI (UACC-62 melanoma): > 100 µM; TGI (UO-31 renal): > 100 µM; TGI (XF 498 CNS): > 100 µM
